Reference: ChEMBL document CHEMBL4257529, “Antifungal amphiphilic kanamycins: new life for an old drug” (Medchemcomm, 2018)
Converted amounts (≈) assume the structure as drawn.

Assays:
Format in all cases: functional
Cryptococcus neoformans [1] = assay: Antifungal activity against Cryptococcus neoformans 90-26
Micrococcus luteus = assay: Antibacterial activity against Micrococcus luteus ATCC 10240
Cryptococcus neoformans [2] = assay: Antifungal activity against Cryptococcus neoformans H99; details: var grubii H99
Candida tropicalis = assay: Antifungal activity against Candida tropicalis 95-41
Candida albicans [3] = assay: Antifungal activity against Candida albicans ATCC 10231
Candida albicans [4] = assay: Antifungal activity against resistant Candida albicans ATCC 64124
Candida albicans [5] = assay: Antifungal activity against sensitive Candida albicans MYA-2876
Candida albicans [6] = assay: Antifungal activity against Candida albicans B-311
Candida albicans [7] = assay: Antifungal activity against Candida albicans 94-2181
Candida parapsilosis [8] = assay: Antifungal activity against resistant Candida parapsilosis; details: Lodderomyces parapsilosis
Candida parapsilosis [9] = assay: Antifungal activity against sensitive Candida parapsilosis; details: Lodderomyces parapsilosis
Fusarium graminearum [10] = assay: Antifungal activity against Fusarium graminearum B-4-5A
Aspergillus flavus = assay: Antifungal activity against Aspergillus flavus
Aspergillus niger = assay: Antifungal activity against Aspergillus niger
Fusarium graminearum [11] = assay: Antifungal activity against Fusarium graminearum B4-5A strain A after 48 hrs by microdilution assay
Fusarium graminearum [12] = assay: Antifungal activity against Fusarium graminearum B4-5A strain B after 48 hrs by microdilution assay
Fusarium graminearum [13] = assay: Antifungal activity against Fusarium graminearum B4-5A strain C after 48 hrs by microdilution assay
Fusarium graminearum [14] = assay: Antifungal activity against Fusarium graminearum B4-5A strain D after 48 hrs by microdilution assay
Fusarium graminearum [15] = assay: Antifungal activity against Fusarium graminearum B4-5A strain E after 48 hrs by microdilution assay
Fusarium graminearum [16] = assay: Synergistic antifungal activity against Fusarium graminearum B4-5A strain B assessed as fluconazole MIC after 48 hrs by microdilution assay
Fusarium graminearum [17] = assay: Synergistic antifungal activity against Fusarium graminearum B4-5A strain C assessed as fluconazole MIC after 48 hrs by microdilution assay
Fusarium graminearum [18] = assay: Synergistic antifungal activity against Fusarium graminearum B4-5A strain A in presence of fluconazole after 48 hrs by microdilution assay
Fusarium graminearum [19] = assay: Synergistic antifungal activity against Fusarium graminearum B4-5A strain C in presence of fluconazole after 48 hrs by microdilution assay
Fusarium graminearum [20] = assay: Synergistic antifungal activity against Fusarium graminearum B4-5A strain E in presence of fluconazole after 48 hrs by microdilution assay
Fusarium graminearum [21] = assay: Synergistic antifungal activity against Fusarium graminearum B4-5A strain A in presence of fluconazole after 48 hrs by checkerboard method
Fusarium graminearum [22] = assay: Synergistic antifungal activity against Fusarium graminearum B4-5A strain B in presence of fluconazole after 48 hrs by checkerboard method
Fusarium graminearum [23] = assay: Synergistic antifungal activity against Fusarium graminearum B4-5A strain C in presence of fluconazole after 48 hrs by checkerboard method
Fusarium graminearum [24] = assay: Synergistic antifungal activity against Fusarium graminearum B4-5A strain D in presence of fluconazole after 48 hrs by checkerboard method
Fusarium graminearum [25] = assay: Synergistic antifungal activity against Fusarium graminearum B4-5A strain E in presence of fluconazole after 48 hrs by checkerboard method
Fusarium graminearum [26] = assay: Antifungal activity against Fusarium graminearum infected in wheat plant assessed as spikelet curling at 360 mg/L (reference value: 51.4%)
Fusarium graminearum [27] = assay: Synergistic antifungal activity against Fusarium graminearum infected in wheat plant assessed as spikelet curling at 360 mg/L in presence of 4 ml/L pyraclostrobin (reference value: 51.4%)
Fusarium graminearum [28] = assay: Antifungal activity against Fusarium graminearum infected in wheat plant assessed as fusarium head blight incidence at 180 mg/L (reference value: 70%)
Fusarium graminearum [29] = assay: Synergistic antifungal activity against Fusarium graminearum infected in wheat plant assessed as fusarium head blight incidence at 180 mg/L in presence of 0.438 L/ha prosaro 421 SC (reference value: 70%)
Fusarium graminearum [30] = assay: Synergistic antifungal activity against Fusarium graminearum infected in wheat plant assessed as fusarium head blight incidence at 360 mg/L in presence of 0.438 L/ha prosaro 421 SC (reference value: 70%)
Fusarium graminearum [31] = assay: Synergistic antifungal activity against Fusarium graminearum infected in wheat plant assessed as fusarium head blight incidence at 360 mg/L in presence of 0.512 L/ha caramba (reference value: 70%)
Fusarium graminearum [32] = assay: Antifungal activity against Fusarium graminearum infected in wheat plant assessed as fusarium head blight severity at 360 mg/L (reference value: 75%)
Fusarium graminearum [33] = assay: Synergistic antifungal activity against Fusarium graminearum infected in wheat plant assessed as fusarium head blight severity at 180 mg/L in presence of 0.438 L/ha prosaro 421 SC (reference value: 75%)
Fusarium graminearum [34] = assay: Synergistic antifungal activity against Fusarium graminearum infected in wheat plant assessed as fusarium head blight severity at 180 mg/L in presence of 0.512 L/ha caramba (reference value: 75%)
Fusarium graminearum [35] = assay: Synergistic antifungal activity against Fusarium graminearum infected in wheat plant assessed as fusarium head blight severity at 360 mg/L in presence of 0.438 L/ha prosaro 421 SC (reference value: 75%)
Fusarium graminearum [36] = assay: Synergistic antifungal activity against Fusarium graminearum infected in wheat plant assessed as fusarium head blight severity at 360 mg/L in presence of 0.512 L/ha caramba (reference value: 75%)
Fusarium graminearum [37] = assay: Antifungal activity against Fusarium graminearum infected in wheat plant assessed as fusarium head blight index at 180 mg/L (reference value: 53%)
Fusarium graminearum [38] = assay: Antifungal activity against Fusarium graminearum infected in wheat plant assessed as fusarium head blight index at 360 mg/L (reference value: 53%)
Fusarium graminearum [39] = assay: Synergistic antifungal activity against Fusarium graminearum infected in wheat plant assessed as fusarium head blight index at 180 mg/L in presence of 0.438 L/ha prosaro 421 SC (reference value: 53%)
Fusarium graminearum [40] = assay: Synergistic antifungal activity against Fusarium graminearum infected in wheat plant assessed as fusarium head blight index at 180 mg/L in presence of 0.512 L/ha caramba (reference value: 53%)
Fusarium graminearum [41] = assay: Synergistic antifungal activity against Fusarium graminearum infected in wheat plant assessed as fusarium head blight index at 360 mg/L in presence of 0.438 L/ha prosaro 421 SC (reference value: 53%)
Fusarium graminearum [42] = assay: Synergistic antifungal activity against Fusarium graminearum infected in wheat plant assessed as fusarium head blight index at 360 mg/L in presence of 0.512 L/ha caramba (reference value: 53%)
Fusarium graminearum [43] = assay: Antifungal activity against Fusarium graminearum infected in wheat plant assessed as contamination of wheat heads and kernels with deoxynivalenol at 360 mg/L (reference value: 1.2 ppm)
Fusarium graminearum [44] = assay: Synergistic antifungal activity against Fusarium graminearum infected in wheat plant assessed as contamination of wheat heads and kernels with deoxynivalenol at 360 mg/L in presence of 4 ml/L pyraclostrobin (reference value: 1.2 ppm)
Fusarium graminearum [45] = assay: Synergistic antifungal activity against Fusarium graminearum infected in wheat plant assessed as contamination of wheat heads and kernels with deoxynivalenol at 360 mg/L in presence of 2.8 ml/L proline 480 SC (reference value: 1.2 ppm)

CCCCCCCCS(=O)(=O)OC[C@H]1O[C@H](O[C@@H]2[C@@H](O)[C@H](O[C@H]3O[C@H](CN)[C@@H](O)[C@H](O)[C@H]3O)[C@@H](N)C[C@H]2N)[C@H](O)[C@@H](N)[C@@H]1O
MIC (Cryptococcus neoformans [1]): 3.9 to 7.8 µg/mL (≈ 5.9 to 11.8 µM)
MIC (Micrococcus luteus): 62.5 µg/mL (≈ 94.6 µM)
MIC (Cryptococcus neoformans [2]): 3.9 to 7.8 µg/mL (≈ 5.9 to 11.8 µM)
MIC (Candida tropicalis): 15.6 µg/mL (≈ 23.6 µM)
MIC (Candida albicans [3]): 15.6 µg/mL (≈ 23.6 µM)
MIC (Candida albicans [4]): 31.3 µg/mL (≈ 47.4 µM)
MIC (Candida albicans [5]): 15.6 µg/mL (≈ 23.6 µM)
MIC (Candida albicans [6]): > 7.8 µg/mL
MIC (Candida albicans [7]): > 7.8 µg/mL
MIC (Candida parapsilosis [8]): 15.6 to 31.3 µg/mL (≈ 23.6 to 47.4 µM)
MIC (Candida parapsilosis [9]): 15.6 µg/mL (≈ 23.6 µM)
MIC (Fusarium graminearum [10]): 7.8 µg/mL (≈ 11.8 µM)
MIC (Aspergillus flavus): 300 µg/mL (≈ 454 µM)
MIC (Aspergillus niger): > 150 µg/mL
MIC (Fusarium graminearum [11]): 16 µg/mL (≈ 24.2 µM)
MIC (Fusarium graminearum [12]): 16 µg/mL (≈ 24.2 µM)
MIC (Fusarium graminearum [13]): 16 µg/mL (≈ 24.2 µM)
MIC (Fusarium graminearum [14]): 16 µg/mL (≈ 24.2 µM)
MIC (Fusarium graminearum [15]): 16 µg/mL (≈ 24.2 µM)
MIC (Fusarium graminearum [16]): 6.25 µg/mL
MIC (Fusarium graminearum [17]): 0.25 µg/mL
MIC (Fusarium graminearum [18]): 4 µg/mL
MIC (Fusarium graminearum [19]): 4 µg/mL
MIC (Fusarium graminearum [20]): 4 µg/mL
fractional inhibitory concentration index (FICI) (Fusarium graminearum [21]): 0.37
fractional inhibitory concentration index (FICI) (Fusarium graminearum [22]): 0.5
fractional inhibitory concentration index (FICI) (Fusarium graminearum [23]): 0.37
fractional inhibitory concentration index (FICI) (Fusarium graminearum [24]): 0.5
fractional inhibitory concentration index (FICI) (Fusarium graminearum [25]): 0.7
Activity (Fusarium graminearum [26]): 34.7%
Activity (Fusarium graminearum [27]): 4.7%
Activity (Fusarium graminearum [28]): 15%
Activity (Fusarium graminearum [29]): 11%
Activity (Fusarium graminearum [30]): 10%
Activity (Fusarium graminearum [31]): 13%
Activity (Fusarium graminearum [32]): 62%
Activity (Fusarium graminearum [33]): 55%
Activity (Fusarium graminearum [34]): 50%
Activity (Fusarium graminearum [35]): 54%
Activity (Fusarium graminearum [36]): 61%
Activity_index (Fusarium graminearum [37]): 9%
Activity_index (Fusarium graminearum [38]): 8%
Activity_index (Fusarium graminearum [39]): 6%
Activity_index (Fusarium graminearum [40]): 7%
Activity_index (Fusarium graminearum [41]): 5%
Activity_index (Fusarium graminearum [42]): 8%
Activity (Fusarium graminearum [43]): 1.4 ppm
Activity (Fusarium graminearum [44]): 1.6 ppm
Activity (Fusarium graminearum [45]): 0.3 ppm
